# Measured values reported in patent US20090209494A1, “21-DEOXYMACBECIN ANALOGUES USEFUL AS ANTITUMOR AGENTS” (priority 2005, published 2009).
# Assays:
# [1] = tested on: DU145; experiment: in vitro anticancer activity in combination with compound 14, modified propidium iodide assay; type: cell-based, human
# Protocol: Standard agents were applied at 10 concentrations in sextuplicates in half-log increments. […] Growth inhibition is expressed as treated/control×100 (% T/C), and IC70 values for each combination were determined by plotting compound concentration versus cell viability.
# In vitro evaluation of 14 for anticancer activity when combined with standard cytotoxic agents against the tumour cell line DU145 in a monolayer proliferation assay was carried out as described in the general methods using a modified propidium iodide assay.
# [2] = target: Yeast Hsp90 (Saccharomyces cerevisiae, UniProt P02829); experiment: Hsp90 binding, isothermal titration calorimetry
# Protocol: Yeast Hsp90 was dialysed against 20 mM Tris pH 7.5 containing 1 mM EDTA and 5 mM NaCl and then diluted to 0.008 mM in the same buffer, but containing 2% DMSO. The test compounds were dissolved in 100% DMSO at a concentration of 50 mM and subsequently diluted to 0.1 mM in the same buffer as for Hsp90 with 2% DMSO. Heats of interaction were measured at 30° C. on a MSC system (Microcal), with a cell volume of 1.458 mL. 10 aliquots of 0.027 mL of 0.100 mM of each test compound were injected into 0.008 mM yeast Hsp90. Heats of dilution were determined in a separate experiment by injecting the test compound into buffer containing 2% DMSO, and the corrected data fitted using a nonlinear least square curve-fitting algorithm (Microcal Origin) with three floating variables: stoichiometry, binding constant and change in enthalpy of interaction.
# [3] = tested on: Reverse transcriptase; conditions: Ono et al., 1982; cited from earlier work
# [4] = tested on: OVCAR3; experiment: monolayer proliferation assay (modified propidium iodide assay), OVCAR3; type: cell-based, human; conditions: 4 days exposure, median of duplicate experiments
# Protocol: (§1) In vitro evaluation of compounds for anticancer activity in a panel of 38 human tumour cell lines in a monolayer proliferation assay was carried out at the Oncotest Testing Facility, Institute for Experimental Oncology, Oncotest GmbH, Freiburg.
# (§2) The Oncotest cell lines are established from human tumor xenografts as described by Roth et al., (1999). The origin of the donor xenografts was described by Fiebig et al., (1999). Other cell lines are either obtained from the NCl (H460, SF-268, OVCAR-3, DU145, MDA-MB-231, MDA-MB-468) or purchased from DSMZ, Braunschweig, Germany (LNCAP).
# (§3) All cell lines, unless otherwise specified, were grown at 37° C. in a humidified atmosphere (95% air, 5% CO2) in a ‘ready-mix’ medium containing RPMI 1640 medium, 10% fetal calf serum, and 0.1 mg/mL gentamicin (PAA, Cölbe, Germany).
# (§4) A modified propidium iodide assay was used to assess the effects of the test compound(s) on the growth of human tumour cell lines (Dengler et al., (1995)).
# (§5) Briefly, cells were harvested from exponential phase cultures by trypsinization, counted and plated in 96 well flat-bottomed microtitre plates at a cell density dependent on the cell line (5-10.000 viable cells/well). After 24 h recovery to allow the cells to resume exponential growth, 0.010 mL of culture medium (6 control wells per plate) or culture medium containing a 21-deoxymacbecin analogue was added to the wells. Each concentration was plated in triplicate. […] Following 4 days of continuous exposure, cell culture medium with or without test compound was replaced by 0.2 mL of an aqueous propidium iodide (PI) solution (7 mg/L). To measure the proportion of living cells, cells were permeabilized by freezing the plates. After thawing the plates, fluorescence was measured using the Cytofluor 4000 microplate reader (excitation 530 nm, emission 620 nm), giving a direct relationship to the total number of viable cells.
# (§6) Growth inhibition was expressed as treated/control×100 (% T/C). For active compounds, IC70 values were estimated by plotting compound concentration versus cell viability.
# (§7) In vitro evaluation of the test compounds for anticancer activity in a panel of human tumour cell lines in a monolayer proliferation assay was carried out as described in the general methods using a modified propidium iodide assay.
# [5] = tested on: DU145; experiment: monolayer proliferation assay (modified propidium iodide assay), DU145; type: cell-based, human; conditions: 4 days exposure, median of duplicate experiments
# Protocol: as §1, §2, §3, §4, §5, §6, §7
# [6] = tested on: LNCAP; experiment: monolayer proliferation assay (modified propidium iodide assay), LNCAP; type: cell-based, human; conditions: 4 days exposure, median of duplicate experiments
# Protocol: as §1, §2, §3, §4, §5, §6, §7
# [7] = target: terminal deoxynucleotidyl transferase (Homo sapiens, UniProt P04053); conditions: Ono et al., 1982; cited from earlier work
# [8] = tested on: MCF7; experiment: monolayer proliferation assay (modified propidium iodide assay), MCF7; type: cell-based, human; conditions: 4 days exposure, median of duplicate experiments
# Protocol: as §1, §2, §3, §4, §5, §6, §7
# [9] = tested on: 394NL; experiment: monolayer proliferation assay (modified propidium iodide assay), 394NL; type: cell-based, human; conditions: 4 days exposure, median of duplicate experiments
# Protocol: as §1, §2, §3, §4, §5, §6, §7
# [10] = Solubility assay; type: physicochemical; conditions: aqueous buffer, kinetic from dmso stock; 2% DMSO in PBS pH 7.3; shaken up to six hours; maximum measurable 0.5 mM
# Protocol: Solutions (25 mM) of the test compounds were prepared by dissolving 3-5 mg aliquots in the appropriate amount of DMSO.
# Aliquots (0.01 mL) were added to 0.490 mL of pH 7.3 PBS in glass vials. For each time point, 3 PBS vials were prepared in amber glass vials. For the six hour time point triplicate aliquots in DMSO were also prepared.
# The resulting 0.5 mM solutions were shaken for up to six hours, with vials removed for analysis at 1, 3 and 6 hours. Samples were analysed by HPLC (0.025 mL injections).
# Solubility in 2% DMSO in PBS at each time point was determined by comparing total peak areas for each chromatogram with mean total peak area for chromatograms produced from the corresponding 6 hour DMSO solutions. (Mean total peak area in DMSO solutions was assumed to be equivalent to a 0.5 mM solution).
# [11] = tested on: H460; experiment: monolayer proliferation assay (modified propidium iodide assay), H460; type: cell-based, human; conditions: 4 days exposure, median of duplicate experiments
# Protocol: as §1, §2, §3, §4, §5, §6, §7
# [12] = tested on: SF268; experiment: monolayer proliferation assay (modified propidium iodide assay), SF268; type: cell-based, human; conditions: 4 days exposure, median of duplicate experiments
# Protocol: as §1, §2, §3, §4, §5, §6, §7
# [13] = tested on: 1138L; experiment: monolayer proliferation assay (modified propidium iodide assay), 1138L; type: cell-based, human; conditions: 4 days exposure, median of duplicate experiments
# Protocol: as §1, §2, §3, §4, §5, §6, §7
# [14] = tested on: 251L; experiment: monolayer proliferation assay (modified propidium iodide assay), 251L; type: cell-based, human; conditions: 4 days exposure, median of duplicate experiments
# Protocol: as §1, §2, §3, §4, §5, §6, §7
# [15] = concentration of 14: 0 nM (standard agent alone)
# Chain of Yeast Hsp90 (P02829 whole entry): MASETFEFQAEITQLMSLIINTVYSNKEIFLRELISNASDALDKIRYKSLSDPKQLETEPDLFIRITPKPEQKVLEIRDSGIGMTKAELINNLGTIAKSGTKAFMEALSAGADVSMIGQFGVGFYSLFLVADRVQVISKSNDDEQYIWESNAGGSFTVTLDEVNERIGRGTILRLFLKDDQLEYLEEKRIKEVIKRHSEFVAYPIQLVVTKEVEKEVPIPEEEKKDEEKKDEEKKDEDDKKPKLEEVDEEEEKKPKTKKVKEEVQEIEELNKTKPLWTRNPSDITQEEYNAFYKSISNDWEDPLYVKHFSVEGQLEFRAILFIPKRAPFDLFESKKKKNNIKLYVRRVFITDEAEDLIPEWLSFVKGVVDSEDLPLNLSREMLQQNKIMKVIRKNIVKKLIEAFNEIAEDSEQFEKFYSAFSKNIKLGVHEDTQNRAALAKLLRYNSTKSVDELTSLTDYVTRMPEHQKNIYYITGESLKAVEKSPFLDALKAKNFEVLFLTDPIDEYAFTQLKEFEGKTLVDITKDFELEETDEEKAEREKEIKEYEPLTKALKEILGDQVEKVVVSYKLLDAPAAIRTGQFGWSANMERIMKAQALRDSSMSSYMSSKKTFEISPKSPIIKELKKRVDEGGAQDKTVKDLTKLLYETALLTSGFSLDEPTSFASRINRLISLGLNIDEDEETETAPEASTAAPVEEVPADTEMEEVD
# Chain of terminal deoxynucleotidyl transferase (P04053 whole entry, species assumed): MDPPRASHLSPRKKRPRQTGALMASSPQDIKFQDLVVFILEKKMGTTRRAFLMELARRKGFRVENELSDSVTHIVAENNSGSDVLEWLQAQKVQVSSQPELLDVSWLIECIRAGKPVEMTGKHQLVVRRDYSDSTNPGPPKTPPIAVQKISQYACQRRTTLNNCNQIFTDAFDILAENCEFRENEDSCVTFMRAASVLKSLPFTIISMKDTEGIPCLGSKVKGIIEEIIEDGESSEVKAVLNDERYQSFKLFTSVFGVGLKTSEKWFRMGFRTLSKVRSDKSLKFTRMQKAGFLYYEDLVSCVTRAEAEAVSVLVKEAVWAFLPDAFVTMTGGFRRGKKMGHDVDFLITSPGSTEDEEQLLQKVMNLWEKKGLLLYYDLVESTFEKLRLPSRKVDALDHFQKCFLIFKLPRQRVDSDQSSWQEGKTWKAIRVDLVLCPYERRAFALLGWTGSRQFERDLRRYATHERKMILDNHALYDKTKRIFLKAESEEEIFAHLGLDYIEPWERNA
compound,measurement,setting,value
CC[C@]1(O)C[C@@H]2CN(CCc3c([nH]c4ccccc34)[C@@](C(=O)OC)(c3cc4c(cc3OC)N(C)[C@H]3[C@@](O)(C(N)=O)[C@H](O)[C@]5(CC)C=CCN6CC[C@]43[C@@H]65)C2)C1 [vindesine],IC70 of standard agent,[1]; combined with 14 at 80 nM,0.8 ng/mL
same,IC70 of standard agent,[1]; combined with 14 at 120 nM,0.6 ng/mL
same,IC70 of standard agent,[1]; combined with 14 at 160 nM,0.1 ng/mL
same,IC70 of standard agent,[1]; [15],0.9 ng/mL
"CO[C@@]12[C@H](COC(N)=O)C3=C(C(=O)C(C)=C(N)C3=O)N1C[C@@H]1N[C@@H]12 [mitomycin, mitomycin C]",IC70 of standard agent,[1]; combined with 14 at 30 nM,112 ng/mL
same,IC70 of standard agent,[1]; combined with 14 at 50 nM,87 ng/mL
same,IC70 of standard agent,[1]; combined with 14 at 80 nM,56 ng/mL
same,IC70 of standard agent,[1]; [15],165 ng/mL
O=P1(NCCCl)OCCCN1CCCl (stereo not drawn) [ifosfamid],IC70 of standard agent,[1]; combined with 14 at 80 nM,80570 ng/mL
same,IC70 of standard agent,[1]; combined with 14 at 120 nM,52090 ng/mL
same,IC70 of standard agent,[1]; combined with 14 at 160 nM,17320 ng/mL
same,IC70 of standard agent,[1]; [15],90140 ng/mL
CO[C@H]1[C@@H](OC)C[C@H](C)[C@@H](OC)C2=CC(=O)C=C(NC(=O)/C(C)=C/C=C\[C@H](C)[C@@H](OC(N)=O)/C(C)=C/[C@@H]1C)C2=O [macbecin],Kd,[2],240 nM
same,Reverse transcriptase activity inhibition,[3],not inhibited
same,Test/Control (%) at drug concentration,[4]; 1 μg/mL,54%
same,Test/Control (%) at drug concentration,[4]; 10 μg/mL,11%
same,Test/Control (%) at drug concentration,[5]; 1 μg/mL,13%
same,Test/Control (%) at drug concentration,[5]; 10 μg/mL,5%
same,Test/Control (%) at drug concentration,[6]; 1 μg/mL,34%
same,Test/Control (%) at drug concentration,[6]; 10 μg/mL,32%
same,terminal deoxynucleotidyl transferase activity inhibition,[7],not inhibited
same,Test/Control (%) at drug concentration,[8]; 1 μg/mL,42%
same,Test/Control (%) at drug concentration,[8]; 10 μg/mL,19%
same,Test/Control (%) at drug concentration,[9]; 1 μg/mL,16%
same,Test/Control (%) at drug concentration,[9]; 10 μg/mL,13%
same,solubility,[10],81 µM
same,Test/Control (%) at drug concentration,[11]; 1 μg/mL,62%
same,Test/Control (%) at drug concentration,[11]; 10 μg/mL,25%
same,Test/Control (%) at drug concentration,[12]; 1 μg/mL,40%
same,Test/Control (%) at drug concentration,[12]; 10 μg/mL,6%
same,Test/Control (%) at drug concentration,[13]; 1 μg/mL,71%
same,Test/Control (%) at drug concentration,[13]; 10 μg/mL,31%
same,Test/Control (%) at drug concentration,[14]; 1 μg/mL,58%
same,Test/Control (%) at drug concentration,[14]; 10 μg/mL,44%
"O=NN(CCCl)C(=O)NC1CCCCC1 [CCNU, Cyclohexylchloroethylnitrosurea]",IC70 of standard agent,[1]; combined with 14 at 80 nM,11300 ng/mL
same,IC70 of standard agent,[1]; combined with 14 at 120 nM,9340 ng/mL
same,IC70 of standard agent,[1]; combined with 14 at 160 nM,1630 ng/mL
same,IC70 of standard agent,[1]; [15],19740 ng/mL
"COC1=C2C[C@@H](C)C[C@H](OC)[C@H](O)[C@@H](C)/C=C(\C)[C@H](OC(N)=O)[C@@H](OC)/C=C\C=C(/C)C(=O)NC(=CC1=O)C2=O [Geldanamycin, geldanamycin]",solubility,[10],1.7 µM
